# Results: article PMC5218480 (PLoS ONE, 2017)
# Tested on: MV-4-11 cells
# Assay: Gene expression microarray analysis (Affymetrix PrimeView) and GSEA
# Format: cell-based, human
# Set-up: RFU PODN (11730768_x_at) / Fold change /veh PODN (11730768_x_at) / RFU LINC00158 (11744669_a_at) / Fold change /veh LINC00158 (11744669_a_at) / RFU DUSP10 (11751237_a_at) / Fold change /veh DUSP10 (11751237_a_at) / RFU ID3 (11757404_x_at) / Fold change /veh ID3 (11757404_x_at) / RFU PLEKHG5 (11737974_s_at) / Fold change /veh PLEKHG5 (11737974_s_at) / RFU LRRC4B (11730491_at) / Fold change /veh LRRC4B (11730491_at) / RFU GIMAP4 (11747438_a_at) / Fold change /veh GIMAP4 (11747438_a_at) / RFU KRT8 (11758183_x_at) / Fold change /veh KRT8 (11758183_x_at) / RFU CNN1 (11734310_a_at) / Fold change /veh CNN1 (11734310_a_at) / RFU VPS37D (11726825_at) / Fold change /veh VPS37D (11726825_at) / RFU C10orf10 (11716522_x_at) / Fold change /veh C10orf10 (11716522_x_at) / RFU KIR2DL2 /// KIR2DL4 /// KIR2DL5A /// KIR2DL5B /// KIR2DS1 /// KIR2DS2 /// KIR2DS3 /// KIR2DS4 /// KIR3DL3 /// KIR3DL3 /// KIR3DS1 (11738374_at) / Fold change /veh KIR2DL2 /// KIR2DL4 /// KIR2DL5A /// KIR2DL5B /// KIR2DS1 /// KIR2DS2 /// KIR2DS3 /// KIR2DS4 /// KIR3DL3 /// KIR3DL3 /// KIR3DS1 (11738374_at) / RFU C1QL1 (11718748_at) / Fold change /veh C1QL1 (11718748_at) / RFU TMPRSS4 (11747572_a_at) / Fold change /veh TMPRSS4 (11747572_a_at) / RFU HAMP (11756126_x_at) / Fold change /veh HAMP (11756126_x_at) / RFU RNFT2 (11725882_a_at) / Fold change /veh RNFT2 (11725882_a_at) / RFU NR4A2 (11747474_a_at) / Fold change /veh NR4A2 (11747474_a_at) / RFU ABCC12 (11746883_a_at) / Fold change /veh ABCC12 (11746883_a_at) / RFU TMEM136 (11760407_x_at) / Fold change /veh TMEM136 (11760407_x_at) / RFU CLDN22 /// WWC2 (11732394_at) / Fold change /veh CLDN22 /// WWC2 (11732394_at) / RFU HLA-DPB1 (11760878_x_at) / Fold change /veh HLA-DPB1 (11760878_x_at) / RFU SPINT1 (11716480_a_at) / Fold change /veh SPINT1 (11716480_a_at) / RFU GAP43 (11754022_s_at) / Fold change /veh GAP43 (11754022_s_at) / RFU A4GNT (11735810_at) / Fold change /veh A4GNT (11735810_at) / RFU PRB3 (11715151_x_at) / Fold change /veh PRB3 (11715151_x_at) / RFU TUBB4B (11761932_at) / Fold change /veh TUBB4B (11761932_at) / RFU CAPN14 (11732068_a_at) / Fold change /veh CAPN14 (11732068_a_at) / RFU TMCC2 (11721928_a_at) / Fold change /veh TMCC2 (11721928_a_at) / RFU IRGQ (11745062_a_at) / Fold change /veh IRGQ (11745062_a_at) / RFU FAM174B (11720279_a_at) / Fold change /veh FAM174B (11720279_a_at) / RFU TMPRSS4 (11748680_a_at) / Fold change /veh TMPRSS4 (11748680_a_at) / RFU FAM212B (11763350_a_at) / Fold change /veh FAM212B (11763350_a_at) / RFU PLEKHG5 (11743358_a_at) / Fold change /veh PLEKHG5 (11743358_a_at) / RFU ZSCAN30 (11745921_a_at) / Fold change /veh ZSCAN30 (11745921_a_at) / RFU CMKLR1 (11741424_a_at) / Fold change /veh CMKLR1 (11741424_a_at) / RFU LOC101060620 /// MAPK8IP1 (11723275_at) / Fold change /veh LOC101060620 /// MAPK8IP1 (11723275_at) / RFU SPTSSB (11747773_x_at) / Fold change /veh SPTSSB (11747773_x_at) / RFU PRSS12 (11739890_at) / Fold change /veh PRSS12 (11739890_at) / RFU BIN1 (11741810_x_at) / Fold change /veh BIN1 (11741810_x_at) / RFU WNT11 (11732464_a_at) / Fold change /veh WNT11 (11732464_a_at) / RFU C10orf10 (11716521_a_at) / Fold change /veh C10orf10 (11716521_a_at) / RFU C5orf56 (11738089_at) / Fold change /veh C5orf56 (11738089_at) / RFU CYB561 (11721691_x_at) / Fold change /veh CYB561 (11721691_x_at) / RFU ANKRD19P (11752326_a_at) / Fold change /veh ANKRD19P (11752326_a_at) / RFU OR2T12 /// OR2T33 /// OR2T8 (11738714_s_at) / Fold change /veh OR2T12 /// OR2T33 /// OR2T8 (11738714_s_at) / RFU VCAN (11748164_a_at) / Fold change /veh VCAN (11748164_a_at) / RFU JSRP1 (11732532_at) / Fold change /veh JSRP1 (11732532_at) / RFU KRTAP10-11 (11738290_x_at) / Fold change /veh KRTAP10-11 (11738290_x_at) / RFU MYO3A (11730013_a_at) / Fold change /veh MYO3A (11730013_a_at) / RFU EBF3 (11725865_a_at) / Fold change /veh EBF3 (11725865_a_at) / RFU CAMK2N1 (11719241_x_at) / Fold change /veh CAMK2N1 (11719241_x_at) / RFU C5orf56 (11738088_a_at) / Fold change /veh C5orf56 (11738088_a_at) / RFU OLFML3 (11715873_a_at) / Fold change /veh OLFML3 (11715873_a_at) / RFU LOC100653217 /// NTM (11731650_a_at) / Fold change /veh LOC100653217 /// NTM (11731650_a_at) / RFU MAPK11 (11762145_a_at) / Fold change /veh MAPK11 (11762145_a_at) / RFU FIZ1 (11724087_x_at) / Fold change /veh FIZ1 (11724087_x_at) / RFU OASL (11726364_x_at) / Fold change /veh OASL (11726364_x_at) / RFU SOX15 (11748057_x_at) / Fold change /veh SOX15 (11748057_x_at) / RFU CD79A (11719716_a_at) / Fold change /veh CD79A (11719716_a_at) / RFU HIST1H1D (11736915_at) / Fold change /veh HIST1H1D (11736915_at) / RFU CASKIN2 (11723855_a_at) / Fold change /veh CASKIN2 (11723855_a_at) / RFU LOC730098 (11760151_x_at) / Fold change /veh LOC730098 (11760151_x_at) / RFU OR4N2 (11742367_at) / Fold change /veh OR4N2 (11742367_at) / RFU PRRT2 (11749266_a_at) / Fold change /veh PRRT2 (11749266_a_at) / RFU SNX32 (11753110_a_at) / Fold change /veh SNX32 (11753110_a_at) / RFU CDHR5 (11726645_a_at) / Fold change /veh CDHR5 (11726645_a_at) / RFU RCAN1 (11760418_a_at) / Fold change /veh RCAN1 (11760418_a_at) / RFU FAM167A (11723789_a_at) / Fold change /veh FAM167A (11723789_a_at) / RFU FAM26E (11764081_at) / Fold change /veh FAM26E (11764081_at) / RFU ISYNA1 (11749810_s_at) / Fold change /veh ISYNA1 (11749810_s_at) / RFU ACY1 (11761880_at) / Fold change /veh ACY1 (11761880_at) / RFU 11764098_at / Fold change /veh 11764098_at / RFU SAMD14 (11745864_x_at) / Fold change /veh SAMD14 (11745864_x_at) / RFU NPB (11741838_a_at) / Fold change /veh NPB (11741838_a_at) / RFU TMPRSS6 (11731388_a_at) / Fold change /veh TMPRSS6 (11731388_a_at) / RFU KRTAP10-2 (11738614_at) / Fold change /veh KRTAP10-2 (11738614_at) / RFU ARHGAP8 /// PRR5-ARHGAP8 (11727945_x_at) / Fold change /veh ARHGAP8 /// PRR5-ARHGAP8 (11727945_x_at) / RFU KRTAP5-7 /// NADSYN1 (11734609_at) / Fold change /veh KRTAP5-7 /// NADSYN1 (11734609_at) / RFU RASL12 (11751679_a_at) / Fold change /veh RASL12 (11751679_a_at) / RFU CDKN2B (11736163_a_at) / Fold change /veh CDKN2B (11736163_a_at) / RFU PRF1 (11729649_at) / Fold change /veh PRF1 (11729649_at) / RFU, ZNF638 /// ZNF638-IT1 / Fold change vs veh, ZNF638 /// ZNF638-IT1 / RFU, PANK3 / Fold change vs veh, PANK3 / RFU, SH3YL1 / Fold change vs veh, SH3YL1 / RFU, ZEB2 / Fold change vs veh, ZEB2 / RFU, NRIP1 / Fold change vs veh, NRIP1 / RFU, PTTG1IP / Fold change vs veh, PTTG1IP / RFU, CAPN2 / Fold change vs veh, CAPN2 / RFU, MED14 / Fold change vs veh, MED14 / RFU, SNORA58 / Fold change vs veh, SNORA58 / RFU, C1orf63 / Fold change vs veh, C1orf63 / RFU, LRRFIP1 / Fold change vs veh, LRRFIP1 / RFU, NDUFAF7 / Fold change vs veh, NDUFAF7 / RFU, SLC12A2 / Fold change vs veh, SLC12A2 / RFU, IBTK / Fold change vs veh, IBTK / RFU, ESF1 / Fold change vs veh, ESF1 / Fold change vs veh, TMEM50B / RFU, TAOK1 / Fold change vs veh, TAOK1 / RFU, ACBD3 / Fold change vs veh, ACBD3 / RFU, TMA16 / Fold change vs veh, TMA16 / RFU, RWDD3 / Fold change vs veh, RWDD3 / RFU, BCAT1 / Fold change vs veh, BCAT1 / RFU, EDEM3 / Fold change vs veh, EDEM3 / RFU, TMEM33 / Fold change vs veh, TMEM33 / RFU, WDR75 / Fold change vs veh, WDR75 / RFU, AHCTF1 / Fold change vs veh, AHCTF1 / RFU, TFRC / Fold change vs veh, TFRC / RFU, ZDHHC17 / Fold change vs veh, ZDHHC17 / RFU, NOM1 / Fold change vs veh, NOM1 / RFU, ARL8B / Fold change vs veh, ARL8B / RFU, ZBTB11 / Fold change vs veh, ZBTB11 / RFU, TAMM41 / Fold change vs veh, TAMM41 / RFU, KIAA1704 /// LOC100996395 / Fold change vs veh, KIAA1704 /// LOC100996395 / RFU, ING1 / Fold change vs veh, ING1 / RFU, TRMT61B / Fold change vs veh, TRMT61B / RFU, FUBP3 / Fold change vs veh, FUBP3 / RFU, TP53 / Fold change vs veh, TP53 / RFU, TNKS2 / Fold change vs veh, TNKS2 / RFU, ZFP14 / Fold change vs veh, ZFP14 / RFU, ACTR2 / Fold change vs veh, ACTR2 / RFU, PPP3R1 / Fold change vs veh, PPP3R1 / RFU, PIK3R1 / Fold change vs veh, PIK3R1 / RFU, HNRNPA1 / Fold change vs veh, HNRNPA1 / RFU, RNF170 / Fold change vs veh, RNF170 / RFU, ZNF28 / Fold change vs veh, ZNF28 / RFU, RNGTT / Fold change vs veh, RNGTT / RFU, OGT / Fold change vs veh, OGT / RFU, BRD1 / Fold change vs veh, BRD1 / RFU, MARS / Fold change vs veh, MARS / RFU, ZNF655 / Fold change vs veh, ZNF655 / RFU, FAHD1 / Fold change vs veh, FAHD1 / RFU, BDP1 / Fold change vs veh, BDP1 / RFU, LRRCC1 / Fold change vs veh, LRRCC1 / RFU, ARID1A / Fold change vs veh, ARID1A / RFU, ZNF146 / Fold change vs veh, ZNF146 / RFU, ZNF330 / Fold change vs veh, ZNF330 / RFU, GPN3 / Fold change vs veh, GPN3 / RFU, C9orf123 / Fold change vs veh, C9orf123 / RFU, N4BP2L2 / Fold change vs veh, N4BP2L2 / RFU, ARFIP1 / Fold change vs veh, ARFIP1 / RFU, FAM179B / Fold change vs veh, FAM179B / RFU, BCL10 / Fold change vs veh, BCL10 / RFU, UHRF1BP1L / Fold change vs veh, UHRF1BP1L / RFU, BET1 / Fold change vs veh, BET1 / RFU, CNOT2 / Fold change vs veh, CNOT2 / RFU, ZNF268 / Fold change vs veh, ZNF268 / Fold change vs veh, ZNF507 / RFU, DGCR2 / Fold change vs veh, DGCR2 / RFU, WDSUB1 / Fold change vs veh, WDSUB1 / Fold change vs veh, HSP90B1 /// MIR3652 / RFU, ADSS / Fold change vs veh, ADSS / RFU, GK / Fold change vs veh, GK / RFU, ZNF148 / Fold change vs veh, ZNF148 / RFU, TAF9 / Fold change vs veh, TAF9 / RFU, SLC1A5 / Fold change vs veh, SLC1A5 / RFU, SLMO2 / Fold change vs veh, SLMO2 / RFU, ABCC4 / Fold change vs veh, ABCC4 / RFU, LOC101060439 /// RAP1B / Fold change vs veh, LOC101060439 /// RAP1B / RFU, RFX7 / Fold change vs veh, RFX7 / RFU, GTPBP10 / Fold change vs veh, GTPBP10 / RFU, CNEP1R1 / Fold change vs veh, CNEP1R1 / RFU, BIVM-ERCC5 /// ERCC5 / Fold change vs veh, BIVM-ERCC5 /// ERCC5 / RFU, ILF3 / Fold change vs veh, ILF3 / RFU 11762660_at / Fold change /veh 11762660_at / RFU VCAN (11757783_s_at) / Fold change /veh VCAN (11757783_s_at) / RFU DDX43 (11728927_at) / Fold change /veh DDX43 (11728927_at) / RFU KRT8 (11758188_x_at) / Fold change /veh KRT8 (11758188_x_at) / RFU NKD1 (11759106_at) / Fold change /veh NKD1 (11759106_at) / RFU SRD5A1 (11742802_a_at) / Fold change /veh SRD5A1 (11742802_a_at) / RFU TPSAB1 /// TPSB2 (11721975_s_at) / Fold change /veh TPSAB1 /// TPSB2 (11721975_s_at) / RFU GSTM3 (11746129_a_at) / Fold change /veh GSTM3 (11746129_a_at) / RFU IL23R (11737362_x_at) / Fold change /veh IL23R (11737362_x_at) / RFU TMEM51 (11727254_a_at) / Fold change /veh TMEM51 (11727254_a_at) / RFU PIWIL2 (11732686_x_at) / Fold change /veh PIWIL2 (11732686_x_at) / RFU ORM1 (11744905_x_at) / Fold change /veh ORM1 (11744905_x_at) / RFU CCDC152 (11743942_at) / Fold change /veh CCDC152 (11743942_at) / RFU ECM1 (11717891_a_at) / Fold change /veh ECM1 (11717891_a_at) / RFU IL23R (11748794_a_at) / Fold change /veh IL23R (11748794_a_at) / RFU TNFAIP8L3 (11732012_x_at) / Fold change /veh TNFAIP8L3 (11732012_x_at) / RFU MBOAT4 (11741988_at) / Fold change /veh MBOAT4 (11741988_at) / RFU 11764193_at / Fold change /veh 11764193_at / RFU TMEM53 (11763286_at) / Fold change /veh TMEM53 (11763286_at) / RFU MAGEB2 (11727129_at) / Fold change /veh MAGEB2 (11727129_at) / RFU TMEM200A (11744735_a_at) / Fold change /veh TMEM200A (11744735_a_at) / RFU CCDC152 (11751479_a_at) / Fold change /veh CCDC152 (11751479_a_at) / RFU FAM211A (11726209_a_at) / Fold change /veh FAM211A (11726209_a_at) / RFU RGS16 (11746705_a_at) / Fold change /veh RGS16 (11746705_a_at) / RFU VCAN (11755009_s_at) / Fold change /veh VCAN (11755009_s_at) / RFU RHOB (11743442_s_at) / Fold change /veh RHOB (11743442_s_at) / RFU RGS16 (11720943_a_at) / Fold change /veh RGS16 (11720943_a_at) / RFU RGS16 (11720944_at) / Fold change /veh RGS16 (11720944_at) / RFU, VPS4B / Fold change vs veh, VPS4B / RFU, CREB1 / Fold change vs veh, CREB1 / RFU, DNAJC13 / Fold change vs veh, DNAJC13 / RFU, GNAQ / Fold change vs veh, GNAQ / RFU, CDK5R1 / Fold change vs veh, CDK5R1 / RFU, ZRANB3 / Fold change vs veh, ZRANB3 / RFU, CUL4A / Fold change vs veh, CUL4A / RFU, CCNY / Fold change vs veh, CCNY / RFU, UFL1 / Fold change vs veh, UFL1 / RFU, COG3 / Fold change vs veh, COG3 / RFU, DIAPH2 / Fold change vs veh, DIAPH2 / RFU, SKA2 / Fold change vs veh, SKA2 / RFU, AFF3 / Fold change vs veh, AFF3 / RFU, LMF1 / Fold change vs veh, LMF1 / RFU, IPO11 / Fold change vs veh, IPO11 / RFU, DFFB / Fold change vs veh, DFFB / RFU, FOXP1 / Fold change vs veh, FOXP1 / RFU, CARD8 / Fold change vs veh, CARD8 / RFU, STRN3 / Fold change vs veh, STRN3 / RFU, ADK / Fold change vs veh, ADK / RFU, RASSF2 / Fold change vs veh, RASSF2 / RFU, WIPF1 / Fold change vs veh, WIPF1 / RFU, LARP1B / Fold change vs veh, LARP1B / RFU, RASA1 / Fold change vs veh, RASA1 / RFU, RB1 / Fold change vs veh, RB1 / RFU, PPFIA1 / Fold change vs veh, PPFIA1 / RFU, MAT2A / Fold change vs veh, MAT2A / RFU, CCT5 / Fold change vs veh, CCT5 / RFU, WDR92 / Fold change vs veh, WDR92 / RFU, CUX1 / Fold change vs veh, CUX1 / RFU, TTC7A / Fold change vs veh, TTC7A / RFU, TMEM135 / Fold change vs veh, TMEM135 / RFU, DEPTOR / Fold change vs veh, DEPTOR / RFU, CPM / Fold change vs veh, CPM / RFU, DNAJB6 / Fold change vs veh, DNAJB6 / RFU, CACNA2D3 / Fold change vs veh, CACNA2D3 / RFU, DTX4 / Fold change vs veh, DTX4 / RFU, TFCP2 / Fold change vs veh, TFCP2 / RFU, GMCL1 /// GMCL1P1 / Fold change vs veh, GMCL1 /// GMCL1P1 / RFU, AEBP2 / Fold change vs veh, AEBP2 / RFU, SNHG1 /// SNORD22 /// SNORD25 /// SNORD26 /// SNORD27 /// SNORD28 /// SNORD29 /// SNORD31 / Fold change vs veh, SNHG1 /// SNORD22 /// SNORD25 /// SNORD26 /// SNORD27 /// SNORD28 /// SNORD29 /// SNORD31 / Fold change (Aza/veh), C12orf56 (ProbeSet 11735607_a_at) / Fold change (ACY-1035/veh), C12orf56 (ProbeSet 11735607_a_at) / Fold change (Aza/veh), FGFR1OP (ProbeSet 11751329_s_at) / Fold change (ACY-1035/veh), FGFR1OP (ProbeSet 11751329_s_at) / Fold change (Aza/veh), VPS36 (ProbeSet 11739960_a_at) / Fold change (ACY-1035/veh), VPS36 (ProbeSet 11739960_a_at) / RFU SYPL1 (11715823_x_at) / Fold change /veh SYPL1 (11715823_x_at) / RFU IGFBP7 (11715501_s_at) / Fold change /veh IGFBP7 (11715501_s_at) / RFU REEP3 (11722064_at) / Fold change /veh REEP3 (11722064_at) / RFU IGLL1 (11728026_x_at) / Fold change /veh IGLL1 (11728026_x_at): dose or concentration left out as unconfirmed
# Conditions: ProbeSet 11726703_a_at; LIST B
smiles,measurement,value
Nc1ncn([C@@H]2O[C@H](CO)[C@@H](O)[C@H]2O)c(=O)n1 [azacitidine],"Fold change vs veh, BCL10",0.88
